From patent publication US20210253557A1, “SUBSTITUTED TRIAZOLE DERIVATIVES AND USES THEREOF” (Bayer Pharma Aktiengesellschaft, priority 2017, published 2021) come the findings set out here.

The target of one experiment is T1, human V2 receptor (Homo sapiens, UniProt P30518).
T1 construct: expressed in transfected cells; host or cells: CHO K1 (ATCC) expressing firefly luciferase under a CRE-responsive promoter
Briefly: Cellular in vitro assay for determining vasopressin receptor activity (V2, CRE-luciferase). Format: cell-based. Conditions: CHO cell line transfected with the human V2 receptor; [Arg8]-vasopressin at EC50 concentration; read-out: IC50 hV2. A digest of the protocol:
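CHO K1 cells stably expressing the human V2 receptor and a CRE-driven firefly luciferase were plated the day before in DMEM/F12 with 2% FCS. Test compounds were added together with [Arg8]-vasopressin at its EC50 and incubated 3 h at 37 °C. Luciferase luminescence was read after Triton lysis and luciferin addition, giving IC50 values.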

The target of a further experiment is T2, human V1a receptor (Homo sapiens, UniProt P37288).
T2 construct: expressed in transfected cells; host or cells: CHO K1 (ATCC), also stably transfected with a modified aequorin
T2 sequence (P37288 whole entry): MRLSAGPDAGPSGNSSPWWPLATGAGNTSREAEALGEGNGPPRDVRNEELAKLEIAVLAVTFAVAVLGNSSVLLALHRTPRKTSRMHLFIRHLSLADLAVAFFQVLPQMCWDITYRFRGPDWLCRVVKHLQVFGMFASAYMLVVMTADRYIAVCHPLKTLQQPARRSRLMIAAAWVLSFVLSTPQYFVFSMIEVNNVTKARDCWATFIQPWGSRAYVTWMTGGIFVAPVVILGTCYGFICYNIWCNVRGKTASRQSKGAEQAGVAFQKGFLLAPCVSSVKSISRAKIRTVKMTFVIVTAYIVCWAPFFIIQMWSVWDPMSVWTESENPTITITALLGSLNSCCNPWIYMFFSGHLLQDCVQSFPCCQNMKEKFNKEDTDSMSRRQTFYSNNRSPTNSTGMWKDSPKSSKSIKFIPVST
Briefly: Cellular in vitro assay for determining vasopressin receptor activity (V1a, aequorin luminescence). The class given is cell-based. Conditions: for IC50: CHO cell line transfected with the human V1a receptor, [Arg8]-vasopressin at EC50 concentration, read-out: IC50 hV1a; for ratio IC50 hV2/hV1a: selectivity ratio of IC50 hV2 to IC50 hV1a.

T1 sequence (P30518 whole entry): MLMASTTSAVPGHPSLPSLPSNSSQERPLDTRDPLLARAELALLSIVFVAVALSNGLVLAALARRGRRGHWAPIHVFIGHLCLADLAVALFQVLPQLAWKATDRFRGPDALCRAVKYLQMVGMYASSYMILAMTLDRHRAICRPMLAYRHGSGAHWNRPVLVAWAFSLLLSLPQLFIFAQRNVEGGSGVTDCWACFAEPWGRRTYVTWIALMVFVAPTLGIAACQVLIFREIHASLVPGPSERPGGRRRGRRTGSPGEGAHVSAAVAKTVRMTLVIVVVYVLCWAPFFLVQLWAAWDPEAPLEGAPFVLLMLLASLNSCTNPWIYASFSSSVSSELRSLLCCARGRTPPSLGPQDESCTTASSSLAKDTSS

Take `Cc1ccccc1-n1nc(Cn2nc(-c3ccc(Cl)cc3)n(C[C@H](OC(N)=O)C(F)(F)F)c2=O)nc1COC(N)=O` [Example 38, (2S)-3-[1-({5-[(Carbamoyloxy)methyl]-1-(2-methylphenyl)-1H-1,2,4-triazol-3-yl}methyl)-3-(4-chlorophenyl)-5-oxo-1,5-dihydro-4H-1,2,4-triazol-4-yl]-1,1,1-trifluoropropan-2-yl Carbamate]: the IC50 on human V2 receptor is 3.56 nM. Moreover, on human V1a receptor, the 50% inhibitory concentration (IC50) was determined as 0.65 nM and the “ratio IC50 hV2/hV1a” value was 5.5.

On to `CCNC(=O)OCc1nc(Cn2nc(-c3ccc(Cl)cc3)n(C[C@H](O)C(F)(F)F)c2=O)nn1-c1cccc(F)c1` [Example 43, [3-({3-(4-Chlorophenyl)-5-oxo-4-[(2S)-3,3,3-trifluoro-2-hydroxypropyl]-4,5-dihydro-1H-1,2,4-triazol-1-yl}methyl)-1-(3-fluorophenyl)-1H-1,2,4-triazol-5-yl]methyl Ethylcarbamate], for which the IC50 on human V2 receptor is 5.93 nM. Besides, at human V1a receptor, the IC50 is 5.59 nM and the “ratio IC50 hV2/hV1a” value is on record as 1.1.

In the case of `COCCNC(=O)OCc1nc(Cn2nc(-c3ccc(Cl)cc3)n(C[C@H](O)C(F)(F)F)c2=O)nn1-c1cccc(F)c1` [Example 44, [3-({3-(4-Chlorophenyl)-5-oxo-4-[(2S)-3,3,3-trifluoro-2-hydroxypropyl]-4,5-dihydro-1H-1,2,4-triazol-1-yl}methyl)-1-(3-fluorophenyl)-1H-1,2,4-triazol-5-yl]methyl (2-methoxyethyl)carbamate], the IC50 at human V2 receptor stood at 7.98 nM. Besides, at human V1a receptor, the IC50 was 27.6 nM and the “ratio IC50 hV2/hV1a” value turned out to be 0.3.

On to `O=C(NCC(F)(F)F)OCc1nc(Cn2nc(-c3ccc(Cl)cc3)n(C[C@H](O)C(F)(F)F)c2=O)nn1-c1cccc(F)c1` [Example 45, [3-({3-(4-Chlorophenyl)-5-oxo-4-[(2S)-3,3,3-trifluoro-2-hydroxypropyl]-4,5-dihydro-1H-1,2,4-triazol-1-yl}methyl)-1-(3-fluorophenyl)-1H-1,2,4-triazol-5-yl]methyl (2,2,2-trifluoroethyl)-carbamate], for which the half-inhibitory concentration (IC50) on human V2 receptor turned out to be 5.13 nM; on human V1a receptor, 11.2 nM. The “ratio IC50 hV2/hV1a” value on human V1a receptor is on record as 0.5.

With `CNC(=O)OCc1nc(Cn2nc(-c3ccc(Cl)cc3)n(C[C@H](O)C(F)(F)F)c2=O)nn1-c1cccc(F)c1` [Example 46, [3-({3-(4-Chlorophenyl)-5-oxo-4-[(2S)-3,3,3-trifluoro-2-hydroxypropyl]-4,5-dihydro-1H-1,2,4-triazol-1-yl}methyl)-1-(3-fluorophenyl)-1H-1,2,4-triazol-5-yl]methyl Methylcarbamate], on human V2 receptor, the IC50 came out at 9.36 nM. Besides, on human V1a receptor, the IC50 stood at 6.47 nM and the “ratio IC50 hV2/hV1a” value turned out to be 1.5.

Take `CCNC(=O)OCc1nc(Cn2nc(-c3ccc(Cl)cc3)n(C[C@H](O)C(F)(F)F)c2=O)nn1-c1ccccc1Cl` [Example 47, [1-(2-Chlorophenyl)-3-({3-(4-chlorophenyl)-5-oxo-4-[(2S)-3,3,3-trifluoro-2-hydroxypropyl]-4,5-dihydro-1H-1,2,4-triazol-1-yl}methyl)-1H-1,2,4-triazol-5-yl]methyl Ethylcarbamate]: the IC50 at human V2 receptor was 7.16 nM. Moreover, on human V1a receptor, the IC50 came out at 0.43 nM and the “ratio IC50 hV2/hV1a” value came to 16.6.

For the compound `COCCNC(=O)OCc1nc(Cn2nc(-c3ccc(Cl)cc3)n(C[C@H](O)C(F)(F)F)c2=O)nn1-c1ccccc1Cl` [Example 48, [1-(2-Chlorophenyl)-3-({3-(4-chlorophenyl)-5-oxo-4-[(2S)-3,3,3-trifluoro-2-hydroxypropyl]-4,5-dihydro-1H-1,2,4-triazol-1-yl}methyl)-1H-1,2,4-triazol-5-yl]methyl (2-methoxyethyl)carbamate], the IC50 on human V2 receptor came out at 5.91 nM. Moreover, on human V1a receptor, the IC50 was 1.12 nM and the “ratio IC50 hV2/hV1a” value was 5.3.
